Converted amounts (≈) assume the structure as drawn.
Columns and labels:
[1] = tested on: hypervirulent and nonhypervirulent strains of C. difficile (62 strains); experiment: MIC distribution against 20 hypervirulent and 42 nonhypervirulent strains; type: cell-based, Clostridioides difficile; details: for MIC50 / MIC90: Clostridioides difficile
C. difficile ATCC 700057 [2] = experiment: MIC by broth dilution (GAM broth); type: cell-based, Clostridioides difficile; details: Clostridioides difficile, read-out: MIC
Experimental: MICs obtained using the agar dilution method were determined visually as described for the CLSI method ([41], [42]). MICs obtained using the broth dilution method were determined visually based on the CLSI method except for using Gifu anaerobic medium (GAM) broth instead of supplemented Brucella broth ([41], [42]).

C. difficile ATCC 700057 [3] = experiment: Mutant prevention concentration; type: cell-based, Clostridioides difficile
Experimental: The mutant prevention concentration was measured by plating approximately 10^10 CFU of C. difficile ATCC 700057 onto a GAM agar plate containing the test agent. Inoculated plates were incubated for 3 days, and the MIC for each antibiotic that prevented the growth of colonies was determined using the agar dilution method as described by the CLSI ([41]). The MIC values of grown colonies were compared to determine which bacteria were resistant. The MPC was defined as the lowest concentration that prevented the growth of resistant bacteria.

C. difficile ATCC 700057 [4] = experiment: Postantibiotic effect (PAE); type: cell-based, Clostridioides difficile; details: for Postantibiotic effect: 1 h exposure
Experimental: C. difficile ATCC 700057 was cultured in GAM agar and adjusted in GAM broth to approximately 10^6 CFU/ml. The bacterial suspensions were preincubated at 37°C for 1 h. […] After preincubation, test and reference solutions were added to each bacterial suspension in a test tube, and the suspensions were cultured for 1 h. After exposure to the test compounds, bacterial suspensions were washed with GAM broth and cultured for 6 h. […] The PAE was defined according to Craig and Gudmundsson as PAE = T − C, where T is the time required for the viable counts of the exposed bacteria to increase by 1 log10 above the counts observed immediately after washing, and C is the corresponding time for the antibiotic unexposed controls ([44]).

[5] = Pharmacokinetics in the hamster (cecal contents); type: in vivo, male Syrian hamsters; details: male, Syrian, 2 mg/kg oral
Experimental: OPS-2071 was orally administered at 2 mg/kg to male Syrian hamsters, and the cecal contents were collected 0.5, 1, 2, 4, 8, 24, 48, and 72 h postdose (n = 5 for each time point). After homogenizing with saline and treatment using acetonitrile-formic acid (100:1 [vol/vol]), the OPS-2071 concentration in cecal contents was determined using a validated liquid chromatography-electrospray ionization-tandem mass spectrometry (LC-ESI-MS/MS) method. The mass spectrometer 4000 QTRAP (AB Sciex Pte. Ltd.) and high-performance liquid chromatography Prominence UFLC system (Shimadzu Corp.) were used. The pharmacokinetic (PK) parameters (Cmax) were determined with WinNonlin professional software version 6.3, (Pharsight Corp.).

[6] = Pharmacokinetics in the rat (plasma, oral and intravenous); type: in vivo, male SD rats
Experimental: OPS-2071 was orally or intravenously administered at 1 mg/kg to male SD rats, and plasma was collected 0.5, 1, 2, 4, 6, 8, 12, 24, 48, and 72 h postdose (oral, n = 3 for each time point) or 0.083, 0.25, 0.5, 1, 2, 4, 6, 8, 12, 24, 48, and 72 h postdose (intravenous, n = 3 for each time point). After solid-phase extraction, the OPS-2071 concentration in plasma was determined by a validated LC-ESI-MS/MS method, and bioavailability was calculated. The mass spectrometer QTRAP 5500 (AB Sciex Pte. Ltd.) and high-performance liquid chromatography Prominence UFLCXR system (Shimadzu Corp.) were used. The PK parameters (AUCt) were determined with the same WinNonlin professional software, and the bioavailability was calculated from AUCt,oral and AUCt,intravenous.

C. difficile ATCC 43255 = experiment: In vivo hamster model of C. difficile infection; set-up: species or system golden Syrian hamsters
Experimental: C. difficile ATCC 43255 was cultured on GAM agar, and a bacterial suspension was prepared in saline ([26]). […] Hamsters were infected using oral gavage with 0.5 ml of suspension containing approximately 10^6 CFU of C. difficile (day −1). The next day, the animals were administered clindamycin phosphate (0.2 mg/ml in water) by oral gavage at a dose of 5 ml/kg of body weight, for a final dose of 1 mg/kg (day 0). The animals were allocated to the test groups using a stratified randomization method based on the body weight of each infected animal. The test compounds were administered by oral gavage once daily for 5 days (OPS-2071, 0.008 to 1 mg/kg; fidaxomicin, 0.04 mg/kg to 5 mg/kg; vancomycin, 0.04 to 5 mg/kg [5-fold dilution]). Infected control animals were administered 5% (wt/vol) gum arabic solution by oral gavage. […] The cecal contents of dead animals were tested for toxin A and toxin B using C.Diff Quik Chek Complete (Abbott Diagnostics Medical Co., Ltd., Tokyo, Japan) to confirm that the death of the animal was due to CDI.
The statistical significance of OPS-2071, fidaxomicin, and vancomycin treatment was analyzed at all doses against vehicle. Survival curves were estimated for each group using the Kaplan-Meier method. Differences in survival homogeneity in each group were evaluated with a log-rank test with Dunnett-type (two-sided) comparison.

C. difficile ATCC 700057 [7] = experiment: Effect of pH on MIC (agar dilution); type: cell-based, Clostridioides difficile; details: for MIC: Clostridioides difficile
in vitro = details: mouse
[8] = target: DNA gyrase of C. difficile (Clostridioides difficile, UniProt Q18C89+Q18C90); experiment: biochemical
DNA gyrase of C. difficile, sequence (Q18C90 entry or part of it): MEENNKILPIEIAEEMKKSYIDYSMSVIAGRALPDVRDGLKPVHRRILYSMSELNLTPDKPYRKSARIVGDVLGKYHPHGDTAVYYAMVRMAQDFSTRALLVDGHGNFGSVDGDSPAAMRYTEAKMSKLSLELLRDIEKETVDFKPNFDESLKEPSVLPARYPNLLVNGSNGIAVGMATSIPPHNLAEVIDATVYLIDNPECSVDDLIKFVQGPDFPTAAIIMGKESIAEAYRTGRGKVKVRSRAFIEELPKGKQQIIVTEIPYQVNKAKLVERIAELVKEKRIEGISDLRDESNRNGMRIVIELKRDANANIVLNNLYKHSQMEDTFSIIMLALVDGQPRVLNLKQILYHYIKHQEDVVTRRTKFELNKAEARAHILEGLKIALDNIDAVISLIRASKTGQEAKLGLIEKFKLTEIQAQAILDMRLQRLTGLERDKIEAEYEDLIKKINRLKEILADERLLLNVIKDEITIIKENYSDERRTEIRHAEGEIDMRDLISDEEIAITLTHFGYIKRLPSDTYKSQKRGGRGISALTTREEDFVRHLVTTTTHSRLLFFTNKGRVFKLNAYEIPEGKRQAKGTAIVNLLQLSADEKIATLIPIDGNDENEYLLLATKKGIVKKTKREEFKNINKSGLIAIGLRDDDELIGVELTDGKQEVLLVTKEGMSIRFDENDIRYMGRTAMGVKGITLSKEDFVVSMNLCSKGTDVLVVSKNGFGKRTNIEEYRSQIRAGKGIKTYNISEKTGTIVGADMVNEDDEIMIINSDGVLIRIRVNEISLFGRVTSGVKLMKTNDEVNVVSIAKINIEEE
DNA gyrase of C. difficile, sequence (Q18C89 entry or part of it): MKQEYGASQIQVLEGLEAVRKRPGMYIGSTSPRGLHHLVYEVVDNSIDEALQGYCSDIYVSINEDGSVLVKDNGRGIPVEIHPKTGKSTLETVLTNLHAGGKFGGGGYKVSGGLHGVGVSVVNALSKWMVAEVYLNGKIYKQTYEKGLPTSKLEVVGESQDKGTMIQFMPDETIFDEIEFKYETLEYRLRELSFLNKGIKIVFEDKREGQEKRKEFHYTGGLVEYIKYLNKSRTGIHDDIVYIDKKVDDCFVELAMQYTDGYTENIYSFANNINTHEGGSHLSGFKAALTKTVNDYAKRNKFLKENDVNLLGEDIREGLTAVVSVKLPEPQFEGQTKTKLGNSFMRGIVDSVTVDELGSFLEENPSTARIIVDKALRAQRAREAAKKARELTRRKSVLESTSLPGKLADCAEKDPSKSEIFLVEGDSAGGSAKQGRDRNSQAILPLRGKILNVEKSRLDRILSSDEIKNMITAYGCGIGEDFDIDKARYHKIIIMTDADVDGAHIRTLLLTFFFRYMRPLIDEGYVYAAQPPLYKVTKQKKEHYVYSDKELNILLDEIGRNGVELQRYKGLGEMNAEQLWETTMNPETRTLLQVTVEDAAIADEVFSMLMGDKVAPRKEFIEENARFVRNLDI

[9] = nonhypervirulent strains (n = 42)

Compound `Cc1c(-c2cnc(N)c(C#N)c2)c(F)cc2c(=O)c(C(=O)O)cn(C3CC3)c12` [OPS-2071, 7-(6-amino-5-cyanopyridin-3-yl)-1-cyclopropyl-6-fluoro-8-methyl-4-oxo-1,4-dihydroquinoline-3-carboxylic acid] has an MIC50 ([1]; hypervirulent strains (n = 20)) of 0.03 µg/mL (≈ 0.0793 µM), an MIC90 ([1]; hypervirulent strains (n = 20)) of 0.25 µg/mL (≈ 0.661 µM) and an MIC50 [1, 9] of 0.03 µg/mL (≈ 0.0793 µM). For the same compound, the MIC90 [1, 9] was 0.125 µg/mL (≈ 0.33 µM), the “Cumulative percentage of strains” value ([1]; Hyp (n = 20), MIC 0.063 μg/ml) was 75% and the “Cumulative percentage of strains” value ([1]; Hyp (n = 20), MIC 0.25 μg/ml) was 100%. For the same compound, the “Cumulative percentage of strains” value ([1]; Non-hyp (n = 42), MIC 0.063 μg/ml) was 88%, the “Cumulative percentage of strains” value ([1]; Non-hyp (n = 42), MIC 0.25 μg/ml) was 100% and the MIC range ([1]; hypervirulent strains (n = 20)) was 0.03 to 0.25 µg/mL. The MIC range [1, 9] was 0.03 to 0.25 µg/mL, the MIC (C. difficile ATCC 700057 [2]; ATCC700057, broth dilution, retested for the time-kill assay) was 0.03 µg/mL (≈ 0.0793 µM) and the MIC (C. difficile ATCC 700057 [2]; ATCC700057, broth method, determined for the PAE assay) was 0.06 µg/mL (≈ 0.159 µM). The “MPC fold lower than those of fidaxomicin and vancomycin” value (C. difficile ATCC 700057 [3]) was 16 fold, the “mutant prevention concentration (MPC)” value (C. difficile ATCC 700057 [3]; approximately 10^10 CFU, 3 days) was 0.5 µg/mL and the “PAEs at 4- and 8-fold the MIC” value (C. difficile ATCC 700057 [4]; 4- and 8-fold the MIC) was 3.93 to 4.04 h. The Postantibiotic effect (C. difficile ATCC 700057 [4]; 4× MIC) was 3.93 h, the Postantibiotic effect (C. difficile ATCC 700057 [4]; 8× MIC) was 4.04 h and the concentration at 24 h ([5]; 24 h, read-out: concentration in the cecal contents at 24 h postdose) was 1840 ng/g. The Cmax ([5]; reached at 4 h postdose, read-out: maximum concentration (Cmax) in the cecal contents) was 43000 ng/g, the “plasma concentrations at 48 and 72 h after administration” value ([6]; 1 mg/kg oral or intravenous) was < 0.5 ng/mL and the bioavailability ([6]; male, SD, rat, plasma, 1 mg/kg, from AUCt oral and intravenous) was 2.9%. The AUC(0-t) ([6]; male, SD, rat, intravenous, 1 mg/kg, plasma) was 672 ng·h/mL, the AUC(0-t) ([6]; male, SD, rat, oral, 1 mg/kg, plasma) was 19.5 ng·h/mL and the “ED50 fold lower than that of fidaxomicin” value (C. difficile ATCC 43255; hamster, in vivo) was 52.1 fold. The “ED50 fold lower than that of vancomycin” value (C. difficile ATCC 43255; hamster, in vivo) was 39.0 fold, the “50% effective dose (ED50)” value (C. difficile ATCC 43255; survival on day 20, oral once daily for 5 days, probit method) was 0.0313 mg/kg/day and the “dosages with significant efficacy compared with vehicle control” value (C. difficile ATCC 43255; survival, log-rank test) was ≥ 0.04 mg/kg. For the same compound, the MIC (C. difficile ATCC 700057 [7]; ATCC700057, pH 6) was 0.016 µg/mL (≈ 0.0423 µM), the MIC (C. difficile ATCC 700057 [7]; ATCC700057, pH 7) was 0.016 µg/mL (≈ 0.0423 µM) and the MIC (C. difficile ATCC 700057 [7]; ATCC700057, pH 8) was 0.03 µg/mL (≈ 0.0793 µM). For the same compound, the “influence of pH on MICs” value (C. difficile ATCC 700057 [7]; pH 6 to 8) was “not influenced by pH”, the IC50 at 110 min (in vitro) was > 100 µg/mL and the IC50 [8] was 608 nM.
